pIC50: −log10 of the molar value. One block for each compound: values may come before it.
Columns and labels:
[1] = test system: Syrian golden hamster; test: Toxicity in Syrian golden hamster assessed as weight gain at 25 mg/kg, po; format: organism-based, Mesocricetus auratus; design: dose 25 mg/kg, route oral; conditions: in vivo
[2] = test system: Syrian golden hamster; test: Toxicity in Syrian golden hamster assessed as effect of food intake at 25 mg/kg, po; format: organism-based, Mesocricetus auratus; design: dose 25 mg/kg, route oral; conditions: in vivo
[3] = test system: Syrian golden hamster; test: Hypolipidemic activity in high fat diet fed Syrian golden hamster assessed as reduction of total cholesterol level at 25 mg/kg, po for 7 days; format: functional, Mesocricetus auratus; design: scale not given: the % may be the effect or the level left
[4] = target: T1, 3-hydroxy-3-methylglutaryl-coenzyme A reductase (Homo sapiens, UniProt P04035); test: Inhibition of HMG-CoA reductase using HMG-CoA as substrate by spectrophotometry in presence of NADPH
T1 sequence (P04035 whole entry): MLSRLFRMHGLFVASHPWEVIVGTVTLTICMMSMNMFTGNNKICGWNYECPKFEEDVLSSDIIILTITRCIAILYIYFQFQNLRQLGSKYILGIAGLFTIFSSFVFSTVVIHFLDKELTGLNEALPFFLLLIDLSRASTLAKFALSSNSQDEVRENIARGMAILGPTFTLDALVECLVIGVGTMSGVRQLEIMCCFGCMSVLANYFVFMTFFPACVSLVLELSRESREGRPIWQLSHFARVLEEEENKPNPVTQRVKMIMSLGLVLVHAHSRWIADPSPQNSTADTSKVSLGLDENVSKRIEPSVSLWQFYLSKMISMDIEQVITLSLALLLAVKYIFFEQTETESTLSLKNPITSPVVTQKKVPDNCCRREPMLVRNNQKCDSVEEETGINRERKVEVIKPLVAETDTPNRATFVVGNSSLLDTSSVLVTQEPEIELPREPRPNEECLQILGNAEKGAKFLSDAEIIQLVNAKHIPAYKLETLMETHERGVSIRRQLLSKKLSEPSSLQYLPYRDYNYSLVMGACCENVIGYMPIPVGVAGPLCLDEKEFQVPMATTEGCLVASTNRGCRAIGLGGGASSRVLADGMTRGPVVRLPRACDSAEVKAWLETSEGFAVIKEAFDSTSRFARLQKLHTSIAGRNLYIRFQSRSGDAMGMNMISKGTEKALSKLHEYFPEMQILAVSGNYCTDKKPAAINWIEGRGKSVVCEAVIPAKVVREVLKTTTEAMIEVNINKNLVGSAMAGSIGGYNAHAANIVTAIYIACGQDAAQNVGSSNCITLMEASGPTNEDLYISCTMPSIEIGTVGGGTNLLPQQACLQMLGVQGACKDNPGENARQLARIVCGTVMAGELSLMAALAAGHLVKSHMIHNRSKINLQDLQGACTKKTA

[5] = test system: Syrian golden hamster; test: Hypolipidemic activity in high fat diet fed Syrian golden hamster assessed as reduction of glycerol level at 100 mg/kg, po for 7 days; format: functional, Mesocricetus auratus; design: scale not given: the % may be the effect or the level left
[6] = test system: Syrian golden hamster; test: Hypolipidemic activity in high fat diet fed Syrian golden hamster assessed as increase in HDL-cholesterol-total cholesterol ratio at 100 mg/kg, po for 7 days; format: functional, Mesocricetus auratus
[7] = Cmax in high fat diet fed Syrian golden hamster at 25 mg/kg, po; format: ADME, organism-based, Mesocricetus auratus; design: dose 25 mg/kg, route oral; conditions: in vivo
[8] = Mean residence time in high fat diet fed Syrian golden hamster at 25 mg/kg, po; format: ADME, organism-based, Mesocricetus auratus; design: dose 25 mg/kg, route oral; conditions: in vivo
[9] = test system: Syrian golden hamster; test: Hypolipidemic activity in high fat diet fed Syrian golden hamster assessed as reduction of total cholesterol level at 50 mg/kg, po for 7 days; format: functional, Mesocricetus auratus; design: scale not given: the % may be the effect or the level left
[10] = test system: Syrian golden hamster; test: Hypolipidemic activity in high fat diet fed Syrian golden hamster assessed as reduction of total cholesterol level at 10 mg/kg, po for 7 days; format: functional, Mesocricetus auratus; design: scale not given: the % may be the effect or the level left
[11] = test system: Syrian golden hamster; test: Hypolipidemic activity in high fat diet fed Syrian golden hamster assessed as reduction of glycerol level at 50 mg/kg, po for 7 days; format: functional, Mesocricetus auratus; design: scale not given: the % may be the effect or the level left
[12] = test system: Syrian golden hamster; test: Hypolipidemic activity in high fat diet fed Syrian golden hamster assessed as reduction of glycerol level at 10 mg/kg, po for 7 days; format: functional, Mesocricetus auratus; design: scale not given: the % may be the effect or the level left
[13] = test system: Syrian golden hamster; test: Hypolipidemic activity in high fat diet fed Syrian golden hamster assessed as reduction of triglyceride level at 100 mg/kg, po for 7 days; format: functional, Mesocricetus auratus; design: scale not given: the % may be the effect or the level left
[14] = test system: Syrian golden hamster; test: Apparent volume of distribution in high fat diet fed Syrian golden hamster at 25 mg/kg, po; format: ADME, organism-based, Mesocricetus auratus; design: dose 25 mg/kg, route oral; conditions: in vivo
[15] = test system: Syrian golden hamster; test: Hypolipidemic activity in high fat diet fed Syrian golden hamster assessed as reduction of triglyceride level at 25 mg/kg, po for 7 days; format: functional, Mesocricetus auratus; design: scale not given: the % may be the effect or the level left
[16] = test system: Syrian golden hamster; test: Hypolipidemic activity in high fat diet fed Syrian golden hamster assessed as reduction of glycerol level at 5 mg/kg, po for 7 days; format: functional, Mesocricetus auratus; design: scale not given: the % may be the effect or the level left
[17] = test system: Syrian golden hamster; test: Hypolipidemic activity in high fat diet fed Syrian golden hamster assessed as reduction of triglyceride level at 5 mg/kg, po for 7 days; format: functional, Mesocricetus auratus; design: scale not given: the % may be the effect or the level left
[18] = test system: Syrian golden hamster; test: Hypolipidemic activity in high fat diet fed Syrian golden hamster assessed as reduction of glycerol level at 25 mg/kg, po for 7 days; format: functional, Mesocricetus auratus; design: scale not given: the % may be the effect or the level left
[19] = test system: Syrian golden hamster; test: Hypolipidemic activity in high fat diet fed Syrian golden hamster assessed as reduction of triglyceride level at 10 mg/kg, po for 7 days; format: functional, Mesocricetus auratus; design: scale not given: the % may be the effect or the level left
[20] = Tmax in high fat diet fed Syrian golden hamster at 25 mg/kg, po; format: ADME, organism-based, Mesocricetus auratus; design: dose 25 mg/kg, route oral; conditions: in vivo
[21] = AUC (0 to t) in high fat diet fed Syrian golden hamster at 25 mg/kg, po; format: ADME, organism-based, Mesocricetus auratus; design: dose 25 mg/kg, route oral; conditions: plasma
[22] = test system: Syrian golden hamster; test: Hypolipidemic activity in high fat diet fed Syrian golden hamster assessed as increase in HDL-cholesterol-total cholesterol ratio at 5 mg/kg, po for 7 days; format: functional, Mesocricetus auratus
[23] = Apparent oral clearance in high fat diet fed Syrian golden hamster at 25 mg/kg, po; format: ADME, organism-based, Mesocricetus auratus; design: dose 25 mg/kg, route oral; conditions: in vivo
[24] = test system: Syrian golden hamster; test: Hypolipidemic activity in high fat diet fed Syrian golden hamster assessed as increase in HDL-cholesterol-total cholesterol ratio at 50 mg/kg, po for 7 days; format: functional, Mesocricetus auratus
[25] = test system: Syrian golden hamster; test: Hypolipidemic activity in high fat diet fed Syrian golden hamster assessed as reduction of total cholesterol level at 5 mg/kg, po for 7 days; format: functional, Mesocricetus auratus; design: scale not given: the % may be the effect or the level left
[26] = test system: Syrian golden hamster; test: Hypolipidemic activity in high fat diet fed Syrian golden hamster assessed as reduction of total cholesterol level at 100 mg/kg, po for 7 days; format: functional, Mesocricetus auratus; design: scale not given: the % may be the effect or the level left
[27] = test system: Syrian golden hamster; test: Hypolipidemic activity in high fat diet fed Syrian golden hamster assessed as increase in HDL-cholesterol-total cholesterol ratio at 10 mg/kg, po for 7 days; format: functional, Mesocricetus auratus
[28] = test system: Syrian golden hamster; test: Hypolipidemic activity in high fat diet fed Syrian golden hamster assessed as increase in HDL-cholesterol-total cholesterol ratio at 25 mg/kg, po for 7 days; format: functional, Mesocricetus auratus
[29] = test system: Syrian golden hamster; test: Hypolipidemic activity in high fat diet fed Syrian golden hamster assessed as reduction of triglyceride level at 50 mg/kg, po for 7 days; format: functional, Mesocricetus auratus; design: scale not given: the % may be the effect or the level left

Compound: CC1=C(C=O)CC2[C@@]1(C)CC[C@@H](C)[C@]2(C)CCC1=CC(=O)O[C@@H]1O (mixture of isomers)
Activity [1]: Non-toxic | Activity [2]: Non-toxic

Compound: C=C1[C@@H](O)CC[C@@H]2[C@@](C)(CCC3=CC(=O)O[C@@H]3O)[C@H](C)CC[C@@]12C
Activity [1]: Non-toxic | Activity [2]: Non-toxic

Compound: CC1=CCC[C@@H]2[C@@](C)(CC/C(C=O)=C\C(=O)O)[C@H](C)CC[C@@]12C
Activity [1]: Non-toxic | Activity [2]: Non-toxic

pIC50 [4]: 4.52 | Cmax [7]: 2490 ng/mL | MRT [8]: 4.52 h | Vz [14]: 17.78 L/kg | Tmax [20]: 0.5 h | AUC(0-t) [21]: 5740 ng·h/mL | CL/F [23]: 72.5 mL/min/kg
Compound: CC1=CCC[C@@H]2[C@@](C)(CCC3=CC(=O)O[C@@H]3O)[C@H](C)CC[C@@]12C
Activity [3]: 41% | Activity [5]: 43% | Ratio [6]: 46 | Activity [9]: 55% | Activity [1]: Non-toxic | Activity [10]: 23% | Activity [11]: 48% | Activity [12]: 5% | Activity [13]: 43% | Activity [15]: 45% | Activity [16]: 10% | Activity [17]: 19% | Activity [18]: 37% | Activity [19]: 26% | Ratio [22]: 12 | Ratio [24]: 54 | Activity [25]: 27% | Activity [26]: 54% | Ratio [27]: 12 | Activity [2]: Non-toxic | Ratio [28]: 48 | Activity [29]: 46%

Compound: CC[C@H](C)C(=O)O[C@H]1C[C@@H](C)C=C2C=C[C@H](C)[C@H](CC[C@@H]3C[C@@H](O)CC(=O)O3)[C@H]21 [LOVASTATIN]
Activity [3]: 9% | Activity [15]: 29% | Activity [18]: 35%
